# Measured values published in publication PMC10176470, “Engaging a Non-catalytic Cysteine Residue Drives Potent and Selective Inhibition of Caspase-6” (Journal of the American Chemical Society, 2023).
# Tests used:
# Assay type in all cases: cell-based
# [1] = biological target: T1, proteins of HEK293T cells transiently overexpressing caspase-6 (Homo sapiens, UniProt O60506); settings: exp_ref Probe; protein SYNCRIP (O60506); analysis C6
# T1 sequence (O60506 1-623): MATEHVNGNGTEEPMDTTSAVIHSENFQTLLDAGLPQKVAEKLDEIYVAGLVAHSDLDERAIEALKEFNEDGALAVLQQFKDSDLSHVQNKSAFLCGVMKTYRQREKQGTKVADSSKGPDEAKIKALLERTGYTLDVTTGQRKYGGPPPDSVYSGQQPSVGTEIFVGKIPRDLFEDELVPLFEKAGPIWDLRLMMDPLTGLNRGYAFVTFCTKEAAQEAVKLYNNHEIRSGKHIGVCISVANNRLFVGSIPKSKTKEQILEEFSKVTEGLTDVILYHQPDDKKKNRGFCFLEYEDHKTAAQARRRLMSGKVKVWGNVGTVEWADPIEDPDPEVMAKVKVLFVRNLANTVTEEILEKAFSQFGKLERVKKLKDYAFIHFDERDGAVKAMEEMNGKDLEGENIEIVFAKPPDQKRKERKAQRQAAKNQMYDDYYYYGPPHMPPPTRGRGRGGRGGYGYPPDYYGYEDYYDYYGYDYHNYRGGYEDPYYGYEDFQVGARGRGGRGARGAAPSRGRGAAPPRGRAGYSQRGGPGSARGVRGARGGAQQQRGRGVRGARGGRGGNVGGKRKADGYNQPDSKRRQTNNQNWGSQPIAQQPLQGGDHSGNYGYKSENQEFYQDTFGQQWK
# [2] = biological target: proteins of HEK293T cells transiently overexpressing caspase-6 (Homo sapiens, UniProt Q13838); settings: exp_ref Probe; protein DDX39B (Q13838); analysis C6
# Sequence of proteins of HEK293T cells transiently overexpressing caspase-6 (Homo sapiens, UniProt Q13838) (Q13838 whole entry): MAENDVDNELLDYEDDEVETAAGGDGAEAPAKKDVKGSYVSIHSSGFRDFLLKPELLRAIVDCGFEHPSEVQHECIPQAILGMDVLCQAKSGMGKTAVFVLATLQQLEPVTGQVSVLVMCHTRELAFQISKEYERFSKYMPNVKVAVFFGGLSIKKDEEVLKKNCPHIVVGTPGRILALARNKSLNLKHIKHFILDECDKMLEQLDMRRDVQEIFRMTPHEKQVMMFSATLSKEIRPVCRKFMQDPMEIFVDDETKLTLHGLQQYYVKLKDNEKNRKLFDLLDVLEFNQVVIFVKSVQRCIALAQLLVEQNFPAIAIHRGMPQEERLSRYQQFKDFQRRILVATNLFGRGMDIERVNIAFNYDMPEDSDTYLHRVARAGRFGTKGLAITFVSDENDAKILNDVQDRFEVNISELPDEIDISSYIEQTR
# [3] = biological target: proteins of HEK293T cells transiently overexpressing caspase-6 (Homo sapiens, UniProt P13645); settings: Probe; protein KRT10 P13645
# Sequence of proteins of HEK293T cells transiently overexpressing caspase-6 (Homo sapiens, UniProt P13645) (P13645 whole entry): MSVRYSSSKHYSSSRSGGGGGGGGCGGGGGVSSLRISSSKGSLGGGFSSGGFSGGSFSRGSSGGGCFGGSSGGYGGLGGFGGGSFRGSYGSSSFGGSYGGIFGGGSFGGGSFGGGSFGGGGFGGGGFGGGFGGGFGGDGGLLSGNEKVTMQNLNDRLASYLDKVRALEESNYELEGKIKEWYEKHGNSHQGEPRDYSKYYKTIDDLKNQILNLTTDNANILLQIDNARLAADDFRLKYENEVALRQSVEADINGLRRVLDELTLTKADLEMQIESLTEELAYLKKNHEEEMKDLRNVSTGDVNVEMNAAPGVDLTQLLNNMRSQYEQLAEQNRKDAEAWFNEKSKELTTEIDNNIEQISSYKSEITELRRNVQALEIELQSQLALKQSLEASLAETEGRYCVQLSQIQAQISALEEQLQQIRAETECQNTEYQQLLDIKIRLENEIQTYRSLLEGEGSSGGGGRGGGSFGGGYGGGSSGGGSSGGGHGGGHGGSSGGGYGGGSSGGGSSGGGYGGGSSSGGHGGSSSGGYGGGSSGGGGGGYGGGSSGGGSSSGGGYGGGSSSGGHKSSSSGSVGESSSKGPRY
# [4] = biological target: T2, proteins of HEK293T cells transiently overexpressing caspase-6 (Homo sapiens, UniProt O00410); settings: protein IPO5 (O00410)
# T2 sequence (O00410 1-1097): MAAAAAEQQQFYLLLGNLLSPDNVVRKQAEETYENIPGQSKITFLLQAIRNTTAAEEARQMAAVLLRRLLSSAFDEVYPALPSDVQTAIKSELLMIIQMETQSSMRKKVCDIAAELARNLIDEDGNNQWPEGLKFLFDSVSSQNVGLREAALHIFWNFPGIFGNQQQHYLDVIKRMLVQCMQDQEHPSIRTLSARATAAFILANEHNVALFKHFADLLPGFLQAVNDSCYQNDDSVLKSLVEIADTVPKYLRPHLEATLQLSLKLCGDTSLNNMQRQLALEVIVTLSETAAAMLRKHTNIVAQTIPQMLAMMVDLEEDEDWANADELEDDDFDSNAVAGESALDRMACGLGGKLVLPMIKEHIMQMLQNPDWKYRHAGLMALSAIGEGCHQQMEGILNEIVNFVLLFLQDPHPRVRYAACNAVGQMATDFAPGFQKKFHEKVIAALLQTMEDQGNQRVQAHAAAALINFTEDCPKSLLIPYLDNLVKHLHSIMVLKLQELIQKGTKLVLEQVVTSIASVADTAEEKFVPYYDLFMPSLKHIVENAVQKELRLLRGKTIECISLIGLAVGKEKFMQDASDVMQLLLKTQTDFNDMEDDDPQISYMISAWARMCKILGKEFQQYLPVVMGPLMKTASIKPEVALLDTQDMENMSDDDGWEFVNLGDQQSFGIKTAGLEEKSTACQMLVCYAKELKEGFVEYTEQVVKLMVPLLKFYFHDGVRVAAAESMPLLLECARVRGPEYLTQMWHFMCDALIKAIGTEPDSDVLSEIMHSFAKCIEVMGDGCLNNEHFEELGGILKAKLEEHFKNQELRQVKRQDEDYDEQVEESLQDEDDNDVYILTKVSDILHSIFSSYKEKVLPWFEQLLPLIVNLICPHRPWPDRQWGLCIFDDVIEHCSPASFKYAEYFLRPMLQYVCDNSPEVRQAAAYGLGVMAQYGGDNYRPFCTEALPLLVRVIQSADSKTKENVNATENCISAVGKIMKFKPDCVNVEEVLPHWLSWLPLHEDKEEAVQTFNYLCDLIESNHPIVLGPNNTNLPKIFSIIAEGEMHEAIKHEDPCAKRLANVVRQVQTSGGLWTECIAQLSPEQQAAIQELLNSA
# [5] = biological target: proteins of HEK293T cells transiently overexpressing caspase-6 (Homo sapiens, UniProt P07237); settings: protein P4HB (P07237)
# Sequence of proteins of HEK293T cells transiently overexpressing caspase-6 (Homo sapiens, UniProt P07237) (P07237 18-508): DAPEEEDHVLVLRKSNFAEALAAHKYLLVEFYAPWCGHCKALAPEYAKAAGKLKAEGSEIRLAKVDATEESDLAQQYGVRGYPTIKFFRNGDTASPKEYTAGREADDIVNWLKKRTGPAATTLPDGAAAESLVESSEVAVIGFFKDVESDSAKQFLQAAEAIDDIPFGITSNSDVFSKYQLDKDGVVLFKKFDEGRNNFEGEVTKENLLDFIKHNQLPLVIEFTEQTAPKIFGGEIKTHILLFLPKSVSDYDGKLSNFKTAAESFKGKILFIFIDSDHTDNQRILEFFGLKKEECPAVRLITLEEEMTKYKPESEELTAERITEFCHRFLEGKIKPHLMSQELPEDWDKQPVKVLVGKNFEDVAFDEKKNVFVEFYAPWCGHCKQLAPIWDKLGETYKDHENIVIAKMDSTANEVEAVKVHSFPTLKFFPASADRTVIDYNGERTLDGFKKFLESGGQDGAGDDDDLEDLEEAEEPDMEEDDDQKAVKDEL
# [6] = biological target: proteins of HEK293T cells transiently overexpressing caspase-6 (Homo sapiens, UniProt P02533); settings: Probe; protein KRT14 P02533
# Sequence of proteins of HEK293T cells transiently overexpressing caspase-6 (Homo sapiens, UniProt P02533) (P02533 whole entry): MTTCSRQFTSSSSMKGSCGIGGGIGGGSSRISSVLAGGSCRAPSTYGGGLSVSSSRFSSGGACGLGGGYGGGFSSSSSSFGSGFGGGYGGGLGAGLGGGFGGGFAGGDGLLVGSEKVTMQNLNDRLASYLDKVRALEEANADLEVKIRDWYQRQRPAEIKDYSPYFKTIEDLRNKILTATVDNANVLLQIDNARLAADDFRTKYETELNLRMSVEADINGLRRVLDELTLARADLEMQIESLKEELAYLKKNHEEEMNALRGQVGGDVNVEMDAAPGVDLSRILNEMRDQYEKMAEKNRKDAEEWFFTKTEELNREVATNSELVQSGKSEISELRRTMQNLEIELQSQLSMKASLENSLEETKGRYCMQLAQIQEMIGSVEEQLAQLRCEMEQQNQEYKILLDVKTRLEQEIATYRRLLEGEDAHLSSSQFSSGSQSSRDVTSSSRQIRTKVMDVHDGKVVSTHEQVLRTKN
# [7] = biological target: proteins of HEK293T cells transiently overexpressing caspase-6 (Homo sapiens, UniProt Q9H307); settings: exp_ref Probe; protein PNN (Q9H307); analysis C6
# Sequence of proteins of HEK293T cells transiently overexpressing caspase-6 (Homo sapiens, UniProt Q9H307) (Q9H307 whole entry): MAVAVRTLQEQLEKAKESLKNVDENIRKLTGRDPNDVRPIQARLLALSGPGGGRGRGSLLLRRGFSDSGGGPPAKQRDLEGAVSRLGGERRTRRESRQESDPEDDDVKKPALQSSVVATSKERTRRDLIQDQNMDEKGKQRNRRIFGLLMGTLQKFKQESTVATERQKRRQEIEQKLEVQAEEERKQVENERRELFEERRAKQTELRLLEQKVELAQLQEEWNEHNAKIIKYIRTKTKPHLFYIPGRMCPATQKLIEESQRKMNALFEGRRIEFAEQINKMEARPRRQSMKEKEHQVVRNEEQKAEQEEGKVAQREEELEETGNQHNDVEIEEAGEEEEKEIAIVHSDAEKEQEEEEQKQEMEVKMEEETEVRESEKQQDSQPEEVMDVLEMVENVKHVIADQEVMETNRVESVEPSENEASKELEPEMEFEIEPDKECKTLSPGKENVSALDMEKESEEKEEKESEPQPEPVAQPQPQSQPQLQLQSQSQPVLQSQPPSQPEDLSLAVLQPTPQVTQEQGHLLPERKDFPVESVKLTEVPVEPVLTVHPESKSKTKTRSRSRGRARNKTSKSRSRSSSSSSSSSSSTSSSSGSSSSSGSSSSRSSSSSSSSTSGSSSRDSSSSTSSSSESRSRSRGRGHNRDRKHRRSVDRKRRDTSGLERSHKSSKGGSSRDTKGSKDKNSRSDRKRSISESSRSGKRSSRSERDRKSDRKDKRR
# [8] = biological target: proteins of HEK293T cells transiently overexpressing caspase-6 (Homo sapiens, UniProt P11388); settings: protein TOP2A (P11388)
# Sequence of proteins of HEK293T cells transiently overexpressing caspase-6 (Homo sapiens, UniProt P11388) (P11388 whole entry): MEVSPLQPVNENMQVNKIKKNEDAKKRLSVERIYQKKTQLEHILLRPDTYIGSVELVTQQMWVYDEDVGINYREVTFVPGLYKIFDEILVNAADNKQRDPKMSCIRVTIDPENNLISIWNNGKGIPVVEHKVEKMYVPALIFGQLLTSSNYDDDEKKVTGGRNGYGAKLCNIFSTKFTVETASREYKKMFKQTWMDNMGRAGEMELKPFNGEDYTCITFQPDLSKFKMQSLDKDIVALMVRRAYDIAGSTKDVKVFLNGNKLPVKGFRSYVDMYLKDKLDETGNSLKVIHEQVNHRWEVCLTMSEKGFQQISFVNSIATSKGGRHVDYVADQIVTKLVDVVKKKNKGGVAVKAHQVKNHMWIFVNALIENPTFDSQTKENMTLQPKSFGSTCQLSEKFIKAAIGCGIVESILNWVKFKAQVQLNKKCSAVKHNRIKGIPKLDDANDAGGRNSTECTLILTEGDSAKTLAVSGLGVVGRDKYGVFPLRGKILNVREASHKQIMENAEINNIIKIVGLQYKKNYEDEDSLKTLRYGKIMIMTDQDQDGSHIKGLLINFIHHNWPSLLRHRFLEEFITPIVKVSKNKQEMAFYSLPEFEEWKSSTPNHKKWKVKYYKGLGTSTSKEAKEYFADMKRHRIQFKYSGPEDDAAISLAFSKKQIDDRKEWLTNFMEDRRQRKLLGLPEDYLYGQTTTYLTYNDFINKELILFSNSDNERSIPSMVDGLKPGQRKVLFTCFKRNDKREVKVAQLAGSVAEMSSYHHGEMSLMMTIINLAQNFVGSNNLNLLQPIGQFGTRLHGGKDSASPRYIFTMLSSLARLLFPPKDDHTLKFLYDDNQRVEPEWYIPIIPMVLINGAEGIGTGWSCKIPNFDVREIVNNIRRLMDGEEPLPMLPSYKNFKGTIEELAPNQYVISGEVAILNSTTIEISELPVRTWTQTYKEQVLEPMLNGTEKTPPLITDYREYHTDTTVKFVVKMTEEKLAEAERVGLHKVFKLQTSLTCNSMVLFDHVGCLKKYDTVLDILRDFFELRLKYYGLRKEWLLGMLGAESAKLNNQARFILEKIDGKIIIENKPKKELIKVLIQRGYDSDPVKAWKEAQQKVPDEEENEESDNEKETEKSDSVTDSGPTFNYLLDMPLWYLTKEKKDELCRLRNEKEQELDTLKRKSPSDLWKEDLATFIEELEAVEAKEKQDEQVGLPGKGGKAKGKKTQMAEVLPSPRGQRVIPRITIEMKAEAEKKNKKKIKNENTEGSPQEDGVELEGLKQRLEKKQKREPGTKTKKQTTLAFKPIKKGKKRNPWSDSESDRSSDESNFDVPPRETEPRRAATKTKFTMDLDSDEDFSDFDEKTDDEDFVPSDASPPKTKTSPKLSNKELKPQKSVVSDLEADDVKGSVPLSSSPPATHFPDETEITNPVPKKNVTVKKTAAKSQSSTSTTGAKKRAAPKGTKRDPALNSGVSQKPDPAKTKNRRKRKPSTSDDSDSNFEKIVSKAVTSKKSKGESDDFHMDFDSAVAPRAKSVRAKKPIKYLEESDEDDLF
# [9] = biological target: proteins of HEK293T cells transiently overexpressing caspase-6 (Homo sapiens, UniProt Q16658); settings: exp_ref Probe; protein FSCN1 (Q16658); analysis C6
# [10] = biological target: proteins of HEK293T cells transiently overexpressing caspase-6 (Homo sapiens, UniProt Q15366); settings: exp_ref Probe; protein PCBP2 (Q15366); analysis C6
# Sequence of proteins of HEK293T cells transiently overexpressing caspase-6 (Homo sapiens, UniProt Q15366) (Q15366 whole entry): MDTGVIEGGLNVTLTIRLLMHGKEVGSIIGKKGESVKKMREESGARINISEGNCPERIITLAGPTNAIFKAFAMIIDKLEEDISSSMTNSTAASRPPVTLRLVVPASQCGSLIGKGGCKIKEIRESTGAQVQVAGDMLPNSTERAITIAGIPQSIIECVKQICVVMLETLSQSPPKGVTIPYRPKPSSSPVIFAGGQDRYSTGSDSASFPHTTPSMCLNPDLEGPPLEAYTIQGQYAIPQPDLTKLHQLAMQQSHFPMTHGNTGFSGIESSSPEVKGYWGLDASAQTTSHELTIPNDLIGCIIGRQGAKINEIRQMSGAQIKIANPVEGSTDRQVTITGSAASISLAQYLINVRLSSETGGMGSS
# [11] = biological target: T3, proteins of HEK293T cells transiently overexpressing caspase-6 (Homo sapiens, UniProt P30048)
# T3 sequence (P30048 62-256): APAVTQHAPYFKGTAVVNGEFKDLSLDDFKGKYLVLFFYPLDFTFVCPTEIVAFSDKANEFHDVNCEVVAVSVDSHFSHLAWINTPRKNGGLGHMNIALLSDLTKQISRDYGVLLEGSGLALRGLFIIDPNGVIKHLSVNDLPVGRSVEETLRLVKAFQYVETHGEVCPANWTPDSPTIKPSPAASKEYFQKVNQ
structure (smiles),measurement,setting,value
C#CCOc1ccc([C@@H]2C[C@@H](C(=O)Nc3ccc(OC(F)(F)F)cc3)CN(S(=O)(=O)C=C)C2)cc1 (relative stereo) [13-t],enrich.exp.med,[1],0.8584
same,enrich.exp.med,[2],0.9779
same,enrich.exp.med,[3],-7.844
same,enrich.exp.med,"[4]; exp_ref Probe, analysis C6",0.788
same,enrich.exp.med.lin,[4],1.727
same,enrich.exp.med.log2,[4],0.788
same,enrich.exp.med.lin,[5],4.024
same,enrich.exp.med.log2,[5],2.009
same,enrich.exp.med,"[5]; exp_ref Probe, analysis C6",2.009
same,enrich.exp.med,[6],-2.018
same,enrich.exp.med,[7],0.5676
same,enrich.exp.med.lin,[8],3.929
same,enrich.exp.med.log2,[8],1.974
same,enrich.exp.med,"[8]; exp_ref Probe, analysis C6",1.974
same,enrich.exp.med,[9],0.2175
same,enrich.exp.med,[10],0.5184
same,enrich.exp.med,"[11]; Probe, protein PRDX3 P30048",-1.058
same,enrich.exp.med.lin,[11]; protein PRDX3 (P30048),0.4804
same,enrich.exp.med.log2,[11]; protein PRDX3 (P30048),-1.058
